Measurements as given in patent EP1060748A1, “REMEDIES FOR CORNEAL EPITHELIUM DISTURBANCE” (Wakamoto Pharmaceutical Co., Ltd., priority 1998, dated 1999).
Counter-ions that a name gives are not always drawn.

Tested on: human corneal epithelial cell line HCEC
Test: Protection against UV-C-induced human corneal epithelial cell damage, viable cell count
Type: cell-based
Conditions: Table 8-2, UV-C 5 seconds
Protocol: Human corneal epithelial cell line HCEC was suspended in 10% fetal bovine serum-SHEM modified medium at a concentration of 1×10^5 cells/ml and 500 µl of this cell suspension was seeded into each well of a 24-multiwell plate (Corning). The cells were cultured in a 5% CO2 incubator at 37°C for 16 to 17 hours. Then, the culture supernatant was thoroughly removed and 500 µl of 10% fetal bovine serum-SHEM modified medium containing a test sample was added to each well. The cells were cultured under the same conditions as above for a further two hours. After completion of culture in contact with the sample, the culture supernatant was removed thoroughly so that there would be substantially no residue of the sample in the multiwell plate. The multiwell plate in this condition was irradiated with UV-C, the ultraviolet light with a maximum lethal power, at a distance of 20 to 30 cm for 5 seconds. After UV-C irradiation, 500 µl/well of 10% fetal bovine serum-SHEM modified medium containing the same sample as above was added again and the cells were cultured under the same conditions as above for 16 to 17 hours. Then, the supernatant was discarded from each well and 100 µl of an excision solution (PBS containing 0.25% trypsin (w/v) and 0.02% EDTA) was added. The plate was then incubated in a 5% CO2 incubator at 37 °C for 6 minutes. After this incubation, the viable epithelial cells were thoroughly detached and dispersed by pipetting and stained with 100 µl of 0.1% (w/v) trypan blue staining solution, and immediately the viable cells were counted with a hemocytometer. The protective effect of the sample against UV-induced human corneal epithelial cell damage was evaluated by the following computation. Protective effect (%) = (number of viable cells in sample-added group ÷ number of viable cells in sample-free group) × 100 [formula]

Structure (SMILES): CC(=O)Oc1c(C)c(C)c2c(c1C)CCC(C)(CCCC(C)CCCC(C)CCCC(C)C)O2 (racemic) [Vitamin E, DL-α-tocopherol acetate]
- Protective effect (%) (20 µM): 107%

Structure (SMILES): N[C@@H](CS)C(=O)O [Cysteine]
- Protective effect (%) (2 mM): 46%

Structure (SMILES): CC(=O)N(O)CCCCCNC(=O)CCC(=O)N(O)CCCCCNC(=O)CCC(=O)N(O)CCCCCN [Deferoxamine mesylate]
- Protective effect (%) (2 mM): 94%

Structure (SMILES): N[C@@H](CCC(=O)N[C@@H](CS)C(=O)NCC(=O)O)C(=O)O [Glutathione]
- Protective effect (%) (2 mM): 95%

Structure (SMILES): O=C1O[C@H]([C@@H](O)CO)C(O)=C1O [Vitamin C, ascorbic acid]
- Protective effect (%) (2 mM): 104%
